Experimental data from ChEMBL document CHEMBL1128409, “Potent inhibitors of proteasome” (J Med Chem, 1995).
Where a SMILES comes first, the peptide text is derived from it. The star is where a group is joined. MeOSuc = COC(=O)CCC(=O)*

molecular target: 20S proteasome; assay: Compound was evaluated for inhibitory activity against 20S proteasome from human liver and brain; format: subcellular

Point of comparison: `COC(=O)CCC(=O)N[C@@H](CCC(=O)O)C(=O)N[C@H](C(=O)N[C@@H](CCCCN)C(=O)N[C@@H](Cc1ccccc1)C(=O)O)C(C)C` (MeOSuc-EVKF-OH), IC50 1000 nM. Against it:
- CC(C)CC(C=O)NC(=O)C(CCC/N=C(\N)N[N+](=O)[O-])NC(=O)C(CCCCCCCCN1C(=O)c2ccccc2C1=O)C1CCCC1 (configuration not stated) — 500-fold lower, 2 nM
- COC(=O)CCCCCCCC(=O)N[C@H](CCC/N=C(\N)NS(=O)(=O)c1c(C)c(C)c2c(c1C)CCC(C)(C)O2)C(=O)NC(C=O)CC(C)C (some centres not stated) — higher, > 3000 nM
- COC(=O)CCCCCCCC(=O)NC(CCC/N=C(\N)NS(=O)(=O)c1c(C)cc(OC)c(C)c1C)C(=O)NC(C=O)CC(C)C (configuration not stated) — 11-fold lower, 95 nM
- CC(C)CC(C=O)NC(=O)C(CCC/N=C(\N)N[N+](=O)[O-])NC(=O)C(CCCCCCCCC#N)C1CCCC1 (configuration not stated) — 170-fold lower, 6 nM
- COC(=O)CCCCCCCC(=O)NC(CCC/N=C(\N)N[N+](=O)[O-])C(=O)NC(C=O)CC(C)C (configuration not stated) — 25-fold lower, 40 nM
- COC(=O)CCCCCCCC(=O)NC(CCC/N=C(\N)NS(=O)(=O)c1c(C)c(C)c2c(c1C)CCC(C)(C)O2)C(=O)NC(C=O)CC(C)C (single isomer, unassigned) — 50-fold lower, 20 nM
